Measured values taken from ChEMBL document CHEMBL1201862, “PubChem BioAssay data set” (2004).
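Values below derive from 48-hour exposures of cells grown in 96-well plates, with endpoints linearly interpolated between the two concentrations bracketing the appropriate inhibition level. GI50 marks 50% less growth.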 Active and inactive are the calls of the source. Cut-off read from the data, not from the text of the source: active = GI50 up to about 1.1 µM and inactive = higher.

What was measured:
Assay in all cases: DTP human tumour cell line panel, 48 h
[1] = system: A549
[2] = system: SK-MEL-2
[3] = system: K562
[4] = system: Hs-578T
[5] = system: CAKI-1
[6] = system: NCI-H226
[7] = system: MDA-N
[8] = system: A498
[9] = system: SK-MEL-28
[10] = system: LOX IMVI
[11] = system: COLO 205
[12] = system: HOP-62
[13] = system: SF-295
[14] = system: SNB-75
[15] = system: IGROV-1
[16] = system: UACC-257
[17] = system: SF-539
[18] = system: SK-MEL-5
[19] = system: MOLT-4
[20] = system: SF-268

SMILES: N#Cc1nc(C#N)n(C(=O)c2ccccc2)c1NC(=O)c1ccccc1
- GI50 [1]: > 100 µM (inactive)
- GI50 [2]: > 100 µM (inactive)
- GI50 [3]: > 100 µM (inactive)
- GI50 [4]: > 100 µM (inactive)
- GI50 [5]: > 100 µM (inactive)
- GI50 [6]: > 100 µM (inactive)
- GI50 [7]: > 100 µM (inactive)
- GI50 [8]: > 100 µM (inactive)
- GI50 [9]: > 100 µM (inactive)
- GI50 [10]: > 100 µM (inactive)
- GI50 [11]: > 100 µM (inactive)
- GI50 [12]: > 100 µM (inactive)
- GI50 [13]: > 100 µM (inactive)
- GI50 [14]: > 100 µM (inactive)
- GI50 [15]: > 100 µM (inactive)
- GI50 [16]: > 100 µM (inactive)
- GI50 [17]: > 100 µM (inactive)
- GI50 [18]: > 100 µM (inactive)
- GI50 [19]: > 100 µM (inactive)
- GI50 [20]: > 100 µM (inactive)

SMILES: O=S(=O)(/N=c1\[nH]c(-c2cc(O)c(O)c(O)c2)cs1)c1ccc(Cl)cc1Cl
- GI50 [1]: 31.9 µM (inactive)
- GI50 [2]: 43.8 µM (inactive)
- GI50 [3]: 18.6 µM (inactive)
- GI50 [4]: 20.1 µM (inactive)
- GI50 [5]: 17.3 µM (inactive)
- GI50 [6]: 50.4 µM (inactive)
- GI50 [7]: 25.1 µM (inactive)
- GI50 [8]: 53.1 µM (inactive)
- GI50 [9]: > 100 µM (inactive)
- GI50 [10]: 12.8 µM (inactive)
- GI50 [11]: 22 µM (inactive)
- GI50 [12]: 17.9 µM (inactive)
- GI50 [13]: 17.2 µM (inactive)
- GI50 [14]: 25.7 µM (inactive)
- GI50 [15]: 20.8 µM (inactive)
- GI50 [16]: 16 µM (inactive)
- GI50 [17]: 27.6 µM (inactive)
- GI50 [18]: 17.1 µM (inactive)
- GI50 [19]: 20.7 µM (inactive)
- GI50 [20]: 20.5 µM (inactive)

SMILES: c1ccc(-c2csc3c2-n2cccc2C3N2CCCC2)cc1 (stereo not given)
- GI50 [1]: 26.4 µM (inactive)
- GI50 [2]: > 100 µM (inactive)
- GI50 [3]: 22.6 µM (inactive)
- GI50 [4]: 62.1 µM (inactive)
- GI50 [5]: 72.3 µM (inactive)
- GI50 [6]: 85.1 µM (inactive)
- GI50 [7]: 34.4 µM (inactive)
- GI50 [8]: 76 µM (inactive)
- GI50 [9]: 24.7 µM (inactive)
- GI50 [10]: 40.7 µM (inactive)
- GI50 [11]: > 10 µM (inactive)
- GI50 [12]: 26.5 µM (inactive)
- GI50 [13]: 23.8 µM (inactive)
- GI50 [14]: 14.9 µM (inactive)
- GI50 [15]: 21.1 µM (inactive)
- GI50 [16]: 7.36 µM (inactive)
- GI50 [17]: 36.4 µM (inactive)
- GI50 [18]: 4.84 µM (inactive)
- GI50 [19]: 42.3 µM (inactive)
- GI50 [20]: 13.9 µM (inactive)

SMILES: O=P(O)(O)c1ccccc1Oc1ccccc1
- GI50 [1]: > 100 µM (inactive)
- GI50 [2]: > 100 µM (inactive)
- GI50 [3]: > 100 µM (inactive)
- GI50 [4]: > 100 µM (inactive)
- GI50 [5]: > 100 µM (inactive)
- GI50 [6]: > 100 µM (inactive)
- GI50 [7]: > 100 µM (inactive)
- GI50 [8]: 3.95 µM (inactive)
- GI50 [9]: > 100 µM (inactive)
- GI50 [10]: > 100 µM (inactive)
- GI50 [11]: > 100 µM (inactive)
- GI50 [12]: > 100 µM (inactive)
- GI50 [13]: > 100 µM (inactive)
- GI50 [14]: 30.3 µM (inactive)
- GI50 [15]: > 100 µM (inactive)
- GI50 [16]: > 100 µM (inactive)
- GI50 [17]: > 100 µM (inactive)
- GI50 [18]: > 100 µM (inactive)
- GI50 [19]: > 100 µM (inactive)
- GI50 [20]: > 100 µM (inactive)

SMILES: COc1cc(OC2OC(CO)C(O)C(O)C2O)c2c(c1)O[C@@H]1[C@H](O)Oc3cc(OC)c(OC)cc3[C@]1(O)C2=O (stereo not given in full)
- GI50 [1]: > 25 µM (inactive)
- GI50 [2]: > 25 µM (inactive)
- GI50 [3]: > 25 µM (inactive)
- GI50 [4]: > 25 µM (inactive)
- GI50 [5]: > 25 µM (inactive)
- GI50 [6]: > 25 µM (inactive)
- GI50 [7]: > 25 µM (inactive)
- GI50 [8]: > 25 µM (inactive)
- GI50 [9]: > 25 µM (inactive)
- GI50 [10]: > 25 µM (inactive)
- GI50 [11]: > 25 µM (inactive)
- GI50 [12]: > 25 µM (inactive)
- GI50 [13]: > 25 µM (inactive)
- GI50 [14]: > 25 µM (inactive)
- GI50 [15]: > 25 µM (inactive)
- GI50 [16]: > 25 µM (inactive)
- GI50 [17]: > 25 µM (inactive)
- GI50 [18]: > 25 µM (inactive)
- GI50 [19]: > 25 µM (inactive)
- GI50 [20]: > 25 µM (inactive)

SMILES: CCCSc1ccc2[nH]c(N3C(=O)/C(=C/c4ccc(SC)cc4)N=C3c3ccccc3)cc2c1
- GI50 [1]: 19.5 µM (inactive)
- GI50 [2]: 24.4 µM (inactive)
- GI50 [3]: 0.355 µM (active)
- GI50 [4]: 28.1 µM (inactive)
- GI50 [5]: 38.8 µM (inactive)
- GI50 [6]: > 50 µM (inactive)
- GI50 [7]: 6.56 µM (inactive)
- GI50 [8]: 26.9 µM (inactive)
- GI50 [9]: 34.3 µM (inactive)
- GI50 [10]: 35.7 µM (inactive)
- GI50 [11]: 14.2 µM (inactive)
- GI50 [12]: 42.6 µM (inactive)
- GI50 [13]: 29.7 µM (inactive)
- GI50 [14]: > 34.4 µM (inactive)
- GI50 [15]: 29.2 µM (inactive)
- GI50 [16]: 17.3 µM (inactive)
- GI50 [17]: 14 µM (inactive)
- GI50 [18]: 10.7 µM (inactive)
- GI50 [19]: 1.87 µM (inactive)
- GI50 [20]: 29.8 µM (inactive)
